Calls of active or inactive are those of the source. The calls are words filed in the database; no cut-off is given here.
How the values were obtained:
Staphylococcus aureus [1] = assay: Antibacterial activity against stationary phase of Methicillin-resistant Staphylococcus aureus ATCC 33591 assessed as log reduction in bacterial colonies at 4.5 uM incubated for 24 hrs in broth solution followed by incubation on agar plate for 48 hrs by spot plating method; assay type: functional; conditions: time 72 hrs
Bacillus subtilis [2] = assay: Antibacterial activity against Bacillus subtilis 168 assessed as inhibition of bacterial growth incubated for 18 hrs by turbidity based analysis; assay type: functional
Staphylococcus aureus [3] = assay: Bactericidal activity against methicillin-resistant Staphylococcus aureus ATCC 33591 incubated for 24 hrs in broth solution followed by culturing for 24 hrs on agar plate by spot plating method; assay type: functional; conditions: time 48 hrs
Enterococcus [4] = assay: Potency index, ratio of Vancomycin MIC to test compound MIC for antibacterial activity against Vancomycin-resistant Enterococci NR30909; assay type: functional, NR 30909
Bacillus subtilis [5] = assay: Inhibition of cell wall biosynthesis in Bacillus subtilis 168 assessed as bubble-like formation on bacterial cell surface at PEC incubated for 15 mins by light microscopic analysis; assay type: functional, organism-based
Cell membrane [6] = assay: Induction of Cytoplasmic membrane disruption in Bacillus subtilis 168 assessed as proportion of PI-stained cells at PEC incubated for 10 mins by SYTO9/PI staining based fluorescence microscopy; assay type: subcellular
Staphylococcus aureus [7] = assay: Antibacterial activity against Vancomycin-resistant Staphylococcus aureus 12 assessed as inhibition of bacterial growth incubated for 18 to 24 hrs by CLSI microbroth dilution method; assay type: functional; conditions: time 18-24 hrs
Enterococcus [8] = assay: Bactericidal activity against Vancomycin-resistant Enterococci assessed as log reduction in bacterial colonies at 2XMIC incubated for 24 hrs in broth solution followed by culturing for 24 hrs on agar plate by spot plating method; assay type: functional; conditions: time 48 hrs
Cell membrane [9] = assay: Induction of cytoplasmic membrane permeabilization in Methicillin-resistant Staphylococcus aureus ATCC 33591 assessed as increase in fluorescence intensity at 10 uM measured for 30 to 40 mins by Propidium iodide staining based fluorescence analysis; assay type: subcellular; conditions: time 30-40 min
Staphylococcus aureus [10] = assay: Antibacterial activity against Methicillin-resistant Staphylococcus aureus ATCC 33591 persister cells assessed as log reduction in bacterial colonies at 4.5 uM incubated for 12 hrs in broth solution followed by incubation on agar plate for 48 hrs by spot plating method; assay type: functional; conditions: time 60 hrs
Staphylococcus aureus [11] = assay: Bactericidal activity against methicillin-resistant Staphylococcus aureus ATCC 33591 assessed as log reduction in bacterial colonies at 2XMIC incubated for 24 hrs in broth solution followed by culturing for 24 hrs on agar plate by spot plating method; assay type: functional; conditions: time 48 hrs
HEK293 = assay: Cytotoxicity against human HEK293 cells at 30 uM incubated for 24 hrs by calceinAM/PI staining based fluorescence microscopy; assay type: toxicity, cell-based; conditions: hek293, 24 h
Enterococcus [12] = assay: Antibacterial activity against Vancomycin-resistant Enterococci ATCC 51559 assessed as inhibition of bacterial growth incubated for 18 to 24 hrs by CLSI microbroth dilution method; assay type: functional; conditions: time 18-24 hrs
Staphylococcus aureus [13] = assay: Antibacterial activity against Vancomycin-resistant Staphylococcus aureus 4 assessed as inhibition of bacterial growth incubated for 18 to 24 hrs by CLSI microbroth dilution method; assay type: functional; conditions: time 18-24 hrs
[14] = Induction of hemolysis in human erythrocytes at 250 uM incubated for 1 hr by microtiter plater reader analysis; assay type: toxicity, cell-based, Erythrocyte; conditions: read-out: Activity
Staphylococcus aureus [15] = assay: Antibacterial activity against Methicillin-resistant Staphylococcus aureus ATCC 33591 assessed as time duration of post-antibiotic effect for suppression of bacterial growth at 10XMIC incubated for 1 hr in broth solution followed by washing for drug removal and subsequent plating on nutrient agar plate; assay type: functional
Staphylococcus aureus [16] = assay: Antibacterial activity against Methicillin-resistant Staphylococcus aureus ATCC 33591 assessed as inhibition of bacterial growth measured after 27 passages; assay type: functional
Staphylococcus aureus [17] = assay: Antibacterial activity against Methicillin-resistant Staphylococcus aureus ATCC 33591 assessed as inhibition of bacterial growth incubated for 18 to 24 hrs in presence of 50% human plasma by CLSI microbroth dilution method; assay type: functional; conditions: time 18-24 hrs
Enterococcus [18] = assay: Potency index, ratio of Vancomycin MIC to test compound MIC for antibacterial activity against Vancomycin-resistant Enterococci NR30903; assay type: functional, NR 30903
Staphylococcus aureus [19] = assay: Potency index, ratio of Vancomycin MIC to test compound MIC for antibacterial activity against Vancomycin-resistant Staphylococcus aureus 1; assay type: functional
Enterococcus [20] = assay: Bactericidal activity against Vancomycin-resistant Enterococci assessed as log reduction in bacterial colonies at 4XMIC incubated for 24 hrs in broth solution followed by culturing for 24 hrs on agar plate by spot plating method; assay type: functional; conditions: time 48 hrs
[21] = Hepatotoxicity in mouse assessed as plasma ALT level at 12 mg/kg, ip measured after 48 hrs; assay type: toxicity, organism-based; conditions: in vivo
Cell membrane [22] = assay: Induction of cytoplasmic membrane permeabilization in Bacillus subtilis assessed as increase in fluorescence intensity at 10 uM measured for 30 to 40 mins by Propidium iodide staining based fluorescence analysis; assay type: subcellular; conditions: time 30-40 min
Staphylococcus aureus [23] = assay: Bactericidal activity against methicillin-resistant Staphylococcus aureus ATCC 33591 assessed as log reduction in bacterial colonies incubated for 4 hrs in broth solution followed by culturing for 24 hrs on agar plate by spot plating method; assay type: functional; conditions: time 28 hrs
Enterococcus [24] = assay: Potency index, ratio of Vancomycin MIC to test compound MIC for antibacterial activity against Vancomycin-resistant Enterococci ATCC 51559; assay type: functional
[25] = Toxicity in BALB/c mouse assessed as adverse effects at 55.5 mg/kg, iv measured for 4 hrs; assay type: organism-based; conditions: in vivo
Enterococcus [26] = assay: Bactericidal activity against Vancomycin-resistant Enterococci assessed as reduction in bacterial colonies at MIC to 2XMIC incubated for 6 hrs in broth solution followed by culturing for 24 hrs on agar plate by spot plating method; assay type: functional, organism-based; conditions: time 30.0 hrs
Staphylococcus aureus [27] = assay: Potency index, ratio of Vancomycin MIC to test compound MIC for antibacterial activity against Vancomycin-resistant Staphylococcus aureus 4; assay type: functional
Enterococcus [28] = assay: Antibacterial activity against Vancomycin-resistant Enterococci ATCC 51575 assessed as inhibition of bacterial growth incubated for 18 to 24 hrs by CLSI microbroth dilution method; assay type: functional; conditions: time 18-24 hrs
Enterococcus [29] = assay: Potency index, ratio of Vancomycin MIC to test compound MIC for antibacterial activity against Vancomycin-resistant Enterococci ATCC 51575; assay type: functional
Cell membrane [30] = assay: Induction of cytoplasmic membrane permeabilization in Vancomycin-resistant Enterococci assessed as increase in fluorescence intensity at 10 uM measured for 30 to 40 mins by Propidium iodide staining based fluorescence analysis; assay type: subcellular; conditions: Enterococcus, time 30-40 min
Cell membrane [31] = assay: Induction of cytoplasmic membrane depolarization in Bacillus subtilis assessed as increase in fluorescence intensity at 10 uM measured for 35 to 40 mins by DiSC3(5) dye based fluorescence analysis; assay type: subcellular; conditions: time 35-40 min
[32] = Renal toxicity in mouse assessed as blood urea nitrogen level at 12 mg/kg, ip measured after 48 hrs; assay type: organism-based; conditions: in vivo
Staphylococcus aureus [33] = assay: Bactericidal activity against methicillin-resistant Staphylococcus aureus ATCC 33591 assessed as log reduction in bacterial colonies at 2XMIC incubated for 6 hrs in broth solution followed by culturing for 24 hrs on agar plate by spot plating method; assay type: functional; conditions: time 30 hrs
Staphylococcus aureus [34] = assay: Antibacterial activity against Methicillin-resistant Staphylococcus aureus ATCC 33591 assessed as inhibition of bacterial growth incubated for 18 to 24 hrs by CLSI microbroth dilution method; assay type: functional; conditions: time 18-24 hrs
Staphylococcus aureus [35] = assay: Antibacterial activity against stationary phase of Methicillin-resistant Staphylococcus aureus ATCC 33591 assessed as log reduction in bacterial colonies at 4.5 uM incubated for 12 hrs in broth solution followed by incubation on agar plate for 48 hrs by spot plating method; assay type: functional; conditions: time 60 hrs

For `CCCCCCCCCCNC(=O)C[N+](C)(C)CCCNC(=O)c1ccc(CN[C@@]2(C)C[C@H](O[C@H]3[C@H](Oc4c5cc6cc4Oc4ccc(cc4Cl)[C@@H](O)[C@@H](NC(=O)[C@@H](CC(C)C)NC)C(=O)N[C@@H](CC(N)=O)C(=O)N[C@H]6C(=O)N[C@H]4C(=O)N[C@H](C(=O)N[C@H](C(=O)O)c6cc(O)cc(O)c6-c6cc4ccc6O)[C@H](O)c4ccc(c(Cl)c4)O5)O[C@H](CO)[C@@H](O)[C@@H]3O)O[C@@H](C)[C@H]2O)cc1`, the Activity (Staphylococcus aureus [1]) was 2 log10CFU/ml, the MIC (Bacillus subtilis [2]) was 0.45 µM and the MBC (Staphylococcus aureus [3]) was 0.9 µM. For the same compound, the Ratio (Enterococcus [4]) was 1384, the inhibition (Bacillus subtilis [5]) was “Active” and the Activity (Cell membrane [6]) was 5%. For the same compound, the MIC (Staphylococcus aureus [7]) was 0.9 µM, the Activity (Enterococcus [8]) was 5 log10CFU/ml and the Activity (Cell membrane [9]) was “Active”. For the same compound, the Activity (Staphylococcus aureus [10]) was 1.6 log10CFU/ml, the Activity (Staphylococcus aureus [11]) was 6 log10CFU/ml and the Activity (HEK293) was “Non-Toxic”. The MIC (Enterococcus [12]) was 3.6 µM, the MIC (Staphylococcus aureus [13]) was 0.45 µM and the hemolysis at 1 h, 250 µM [14] was 1%. The Time (Staphylococcus aureus [15]) was 23 h, the MIC (Staphylococcus aureus [16]) was 0.9 µM and the MIC (Staphylococcus aureus [17]) was 0.9 µM. The Ratio (Enterococcus [18]) was 1384, the Ratio (Staphylococcus aureus [19]) was 1384 and the Activity (Enterococcus [20]) was 5 log10CFU/ml. For the same compound, the Activity [21] was 62.25 U/L, the Activity (Cell membrane [22]) was “Active” and the Activity (Staphylococcus aureus [23]) was 3 log10CFU/ml. The Ratio (Enterococcus [24]) was 1384, the Activity [25] was “Non-Toxic” and the Activity (Enterococcus [26]) was “inactive”. For the same compound, the Ratio (Staphylococcus aureus [27]) was 1384, the MIC (Enterococcus [28]) was 3.6 µM and the Ratio (Enterococcus [29]) was 1384. For the same compound, the Activity (Cell membrane [30]) was “Active”, the Activity (Cell membrane [31]) was “Active” and the Activity [32] was 20.7 mg/dL. It also gave an Activity (Staphylococcus aureus [33]) of 4.3 log10CFU/ml, an MIC (Staphylococcus aureus [34]) of 0.9 µM and an Activity (Staphylococcus aureus [35]) of 1.4 log10CFU/ml.

Source: ChEMBL document CHEMBL5223082, “Alkyl-Aryl-Vancomycins: Multimodal Glycopeptides with Weak Dependence on the Bacterial Metabolic State” (J Med Chem, 2021)
